Assay results taken from patent US20250171420A1 (Monte Rosa Therapeutics, Inc., priority 2022, published 2025).
Read-outs that look alike come from different tables or passages of the source.

Experiments:
CK1α = biological target: T1, CK1α (Homo sapiens, UniProt P48729); assay: CK1α NanoBit Assay (HiBiT-tagged CSNK1A1, HEK293 clonal lines); format: cell-based; conditions: HEK293 HiBiT-CSNK1A1/LgBiT cells, 24 h incubation
T1 construct: HEK293 clonal lines with CRISPR KI HiBiT tag on CSNK1A1
Summary of the method: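 HEK293 clones carrying a CRISPR knock-in HiBiT tag on CSNK1A1 and stably expressing LgBiT are treated with compound for 24 hours at 37° C, 5% CO2, then read by luminescence. Response is normalized as 100*(S−N)/(P−N) against plate negative and positive controls, and DC50 values are derived.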

CRBN/DDB1 = CRBN/DDB1 (Homo sapiens, UniProt Q96SW2); assay: HTRF binding assay (displacement of Cy5-thalidomide probe from CRBN/DDB1); conditions: CRBN/DDB1 2.5 nM, Cy5-Thalidomide 100 nM, 30 min; geometric mean; read-out: HTRF_Thali_Disp_DR_geo_IC50
Chain of CRBN/DDB1 (Q96SW2 whole entry, species assumed): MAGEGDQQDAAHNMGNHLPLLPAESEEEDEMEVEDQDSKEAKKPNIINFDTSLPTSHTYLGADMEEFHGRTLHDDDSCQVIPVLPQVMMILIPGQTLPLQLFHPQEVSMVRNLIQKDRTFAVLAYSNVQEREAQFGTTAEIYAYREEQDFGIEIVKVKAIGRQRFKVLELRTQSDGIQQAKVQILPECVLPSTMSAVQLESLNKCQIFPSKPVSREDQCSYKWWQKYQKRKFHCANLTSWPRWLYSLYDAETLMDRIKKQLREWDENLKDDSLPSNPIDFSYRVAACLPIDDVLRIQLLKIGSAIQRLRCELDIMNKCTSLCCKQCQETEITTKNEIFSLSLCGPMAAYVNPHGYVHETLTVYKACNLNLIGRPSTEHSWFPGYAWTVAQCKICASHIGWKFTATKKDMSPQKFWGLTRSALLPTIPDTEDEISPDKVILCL
Chain of CRBN/DDB1 (Q16531 whole entry partner, species assumed): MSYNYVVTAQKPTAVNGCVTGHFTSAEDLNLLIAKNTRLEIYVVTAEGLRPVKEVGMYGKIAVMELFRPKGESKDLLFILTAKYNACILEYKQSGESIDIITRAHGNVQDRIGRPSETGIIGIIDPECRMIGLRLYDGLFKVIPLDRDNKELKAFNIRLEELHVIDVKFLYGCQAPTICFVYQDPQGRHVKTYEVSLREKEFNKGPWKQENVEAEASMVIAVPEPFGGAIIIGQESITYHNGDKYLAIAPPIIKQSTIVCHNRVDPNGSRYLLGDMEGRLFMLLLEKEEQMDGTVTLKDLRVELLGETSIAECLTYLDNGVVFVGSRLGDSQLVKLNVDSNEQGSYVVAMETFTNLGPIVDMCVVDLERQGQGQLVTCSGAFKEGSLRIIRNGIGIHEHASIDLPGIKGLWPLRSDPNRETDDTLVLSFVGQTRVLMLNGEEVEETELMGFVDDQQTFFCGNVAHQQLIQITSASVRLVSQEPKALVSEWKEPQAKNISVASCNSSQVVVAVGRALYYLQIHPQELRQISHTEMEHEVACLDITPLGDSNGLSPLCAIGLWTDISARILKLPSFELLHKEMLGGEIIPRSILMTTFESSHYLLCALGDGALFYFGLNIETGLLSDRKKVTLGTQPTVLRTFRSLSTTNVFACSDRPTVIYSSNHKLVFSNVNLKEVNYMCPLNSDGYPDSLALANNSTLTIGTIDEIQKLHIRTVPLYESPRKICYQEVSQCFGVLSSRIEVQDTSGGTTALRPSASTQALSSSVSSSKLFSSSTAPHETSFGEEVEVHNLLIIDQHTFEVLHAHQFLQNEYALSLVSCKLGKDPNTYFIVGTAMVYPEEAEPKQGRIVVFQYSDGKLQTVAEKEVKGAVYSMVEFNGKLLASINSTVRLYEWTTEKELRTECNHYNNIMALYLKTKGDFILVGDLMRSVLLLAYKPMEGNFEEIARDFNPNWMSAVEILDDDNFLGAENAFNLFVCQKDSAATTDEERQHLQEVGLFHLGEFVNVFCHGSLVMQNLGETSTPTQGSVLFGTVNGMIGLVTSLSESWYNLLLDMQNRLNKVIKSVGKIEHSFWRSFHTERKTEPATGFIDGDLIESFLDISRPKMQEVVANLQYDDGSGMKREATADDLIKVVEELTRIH
Summary of the method: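 Compounds in a 10-point threefold dilution series were incubated 30 min at ambient temperature with 2.5 nM CRBN/DDB1, 100 nM Cy5-thalidomide probe and terbium anti-His donor (HEPES/NaCl/TCEP/EDTA/Tween20 buffer). IC50 came from 4-parameter fits of the 665/620 nm HTRF ratio; Ki used Cheng-Prusoff on geometric-mean IC50.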

SKCO1 cell line = assay: Growth inhibition, CyQUANT Direct Cell Proliferation Assay, SKCO1; format: cell-based; conditions: Homo sapiens
Procedure: (§1) SKCO1, LS180, and LS174T cell lines were purchased from ATCC. CW2 cell line was purchased from Riken. GP2D cell line was purchased from Sigma/ECACC. All cell lines were cultured in manufacturer's recommended media at 37° C., 5% CO2. Briefly, cells were suspended in 200 μL of media and seeded at 300 to 1,800 cells per well in tissue culture treated 96-well plates with black walls and clear bottom. Plates were incubated overnight and initial (To) read was performed the following day using CyQUANT Direct Cell Proliferation Assay Kit (Thermo Fisher Scientific) according to manufacturer's protocol. All compounds were solubilized in DMSO and prepared at 3-fold serial dilution, using 9 points starting at 30 μM as highest concentration, administered to cells and incubated for 120 to 168 hours, at which point CyQUANT assay measurement was performed using Acumen Cellista instrument (Ex/Em 480/520 nm). Media-only wells were used as blank, and 0.3% DMSO was used as DMSO-treated cell control. Growth inhibition (percent response) was calculated using the following formula in Excel: “=if ([Compound treated Day N]>[Untreated Day 0, AVG], ([Compound treated Day N]−[Untreated Day 0, AVG])/([Untreated Day N]−[Untreated Day 0, AVG])*100, ([Compound Treated Day N]−[Untreated Day 0, AVG])/([Untreated Day 0, AVG])*100)”. GI50 is the response corresponding to the 50% of untreated control.
(§2) GI50 data are reported in Tables 4a, 4b, 4c, 4d, and 4e for compounds in Table 1. In Tables 4a, 4b, 4c, 4d, and 4e below, According to the code, A represents a GI50 value of ≤0.1 μM, B represents a GI50 value>0.1 μM and ≤1 μM, C represents an GI50 value>1 μM.

CW2 cell line = assay: Growth inhibition, CyQUANT Direct Cell Proliferation Assay, CW2; format: cell-based; conditions: Homo sapiens
Procedure: as §1, §2

GP2D cell line = assay: Growth inhibition, CyQUANT Direct Cell Proliferation Assay, GP2D; format: cell-based
Procedure: as §1, §2

LS180 cell line = assay: Growth inhibition, CyQUANT Direct Cell Proliferation Assay, LS180; format: cell-based; conditions: Homo sapiens
Procedure: as §1, §2

LS174T cell line = assay: Growth inhibition, CyQUANT Direct Cell Proliferation Assay, LS174T; format: cell-based; conditions: Homo sapiens
Procedure: as §1, §2

[1] = SK-CO-1, SKCO1, 120 to 168 hours, read-out: SKCO1 GI50
[2] = CW-2, CW2, 120 to 168 hours, read-out: CW2 GI50
[3] = GP2D, 120 to 168 hours, read-out: GP2D GI50
[4] = LS180, 120 to 168 hours, read-out: LS180 GI50
[5] = 120 to 168 hours, read-out: LS174T GI50
[6] = SK-CO-1, read-out: SKCO1 GI50 (μM)
[7] = LS180, read-out: LS180 GI50 (μM)

T1 sequence (P48729 whole entry): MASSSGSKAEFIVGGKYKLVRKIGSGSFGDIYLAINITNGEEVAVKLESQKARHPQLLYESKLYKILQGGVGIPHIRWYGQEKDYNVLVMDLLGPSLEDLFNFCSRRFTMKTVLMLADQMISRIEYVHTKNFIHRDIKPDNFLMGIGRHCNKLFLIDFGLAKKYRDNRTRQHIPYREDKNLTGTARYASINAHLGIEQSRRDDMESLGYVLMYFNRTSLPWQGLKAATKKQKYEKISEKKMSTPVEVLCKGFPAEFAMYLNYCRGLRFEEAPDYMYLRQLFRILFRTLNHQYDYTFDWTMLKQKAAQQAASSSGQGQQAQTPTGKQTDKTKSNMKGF
T1 sequence (Q96SW2 whole entry, further chain): as the sequence (Q96SW2 whole entry, species assumed) above
T1 sequence (Q16531 2-1140 partner limits assumed): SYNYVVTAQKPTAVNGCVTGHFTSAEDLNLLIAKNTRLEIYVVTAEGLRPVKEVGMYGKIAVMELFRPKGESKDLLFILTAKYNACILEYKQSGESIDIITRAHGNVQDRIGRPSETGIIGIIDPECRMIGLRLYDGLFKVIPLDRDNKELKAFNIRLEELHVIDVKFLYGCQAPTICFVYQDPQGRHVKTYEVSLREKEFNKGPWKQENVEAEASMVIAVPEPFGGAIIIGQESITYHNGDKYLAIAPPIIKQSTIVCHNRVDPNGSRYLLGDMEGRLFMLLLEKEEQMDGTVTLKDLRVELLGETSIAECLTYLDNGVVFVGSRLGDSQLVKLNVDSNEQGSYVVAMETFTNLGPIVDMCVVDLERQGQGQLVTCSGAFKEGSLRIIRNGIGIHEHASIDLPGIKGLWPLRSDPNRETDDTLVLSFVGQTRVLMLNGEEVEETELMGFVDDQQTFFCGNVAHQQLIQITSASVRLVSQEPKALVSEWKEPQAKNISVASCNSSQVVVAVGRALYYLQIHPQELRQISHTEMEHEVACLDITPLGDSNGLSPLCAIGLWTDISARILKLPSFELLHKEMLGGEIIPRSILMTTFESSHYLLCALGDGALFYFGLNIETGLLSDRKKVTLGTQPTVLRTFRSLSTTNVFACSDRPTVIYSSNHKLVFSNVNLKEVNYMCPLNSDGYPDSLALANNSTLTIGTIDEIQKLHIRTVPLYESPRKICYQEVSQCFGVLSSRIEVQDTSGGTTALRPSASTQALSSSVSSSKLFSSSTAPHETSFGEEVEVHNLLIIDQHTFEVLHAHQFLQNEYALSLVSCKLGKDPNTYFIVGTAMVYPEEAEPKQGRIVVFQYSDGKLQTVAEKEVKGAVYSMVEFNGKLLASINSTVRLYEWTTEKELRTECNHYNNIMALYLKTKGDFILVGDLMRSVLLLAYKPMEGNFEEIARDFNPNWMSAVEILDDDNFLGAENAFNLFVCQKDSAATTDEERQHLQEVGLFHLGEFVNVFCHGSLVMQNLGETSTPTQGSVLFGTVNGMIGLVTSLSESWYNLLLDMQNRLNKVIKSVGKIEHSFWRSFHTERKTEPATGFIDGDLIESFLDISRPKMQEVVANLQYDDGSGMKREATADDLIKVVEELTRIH

Structure (SMILES)	DC50 (CK1α)	IC50 (CRBN/DDB1)	GI50 (SKCO1 cell line; [1])	GI50 (CW2 cell line; [2])	GI50 (GP2D cell line; [3])	GI50 (LS180 cell line; [4])	GI50 (LS174T cell line; [5])	GI50 (SKCO1 cell line; [6])	GI50 (CW2 cell line; CW-2, read-out: CW2 GI50 (μM))	GI50 (GP2D cell line; GP2d, read-out: GP2D GI50 (μM))	GI50 (LS180 cell line; [7])	GI50 (LS174T cell line; read-out: LS174T GI50 (μM))
COC[C@@H]1Cc2ccccc2N1C(=O)Nc1ccc2c(c1)CN(C1CCC(=O)NC1=O)C2=O (stereo in doubt) [Compound 334, (S)—N-(2-((R)-2,6-dioxopiperidin-3-yl)-1-oxoisoindolin-5-yl)-2-(methoxymethyl)indoline-1-carboxamide]	< 0.1 µM	> 1000 nM	0.1 to 1 µM	0.1 to 1 µM	0.1 to 1 µM	0.1 to 1 µM	0.1 to 1 µM	–	–	–	–	–
O=C1CCC(N2Cc3cc(NC(=O)N4CCc5cc(C(F)(F)F)ccc54)ccc3C2=O)C(=O)N1 (stereo not drawn) [Compound 185, N-(2-(2,6-dioxopiperidin-3-yl)-1-oxoisoindolin-5-yl)-5-(trifluoromethyl)indoline-1-carboxamide]	< 0.1 µM	100 to 1000 nM	–	–	–	–	–	0.1 to 1 µM	0.1 to 1 µM	0.1 to 1 µM	0.1 to 1 µM	0.1 to 1 µM
Cc1ccc2c(c1)N(C(=O)Nc1ccc3c(c1)CN(C1CCC(=O)NC1=O)C3=O)CC2 (stereo not drawn) [Compound 190, N-(2-(2,6-dioxopiperidin-3-yl)-1-oxoisoindolin-5-yl)-6-methylindoline-1-carboxamide]	< 0.1 µM	100 to 1000 nM	–	–	–	–	–	0.1 to 1 µM	0.1 to 1 µM	0.1 to 1 µM	0.1 to 1 µM	0.1 to 1 µM
O=C1CCC(N2Cc3cc(NC(=O)N4CCc5c4cccc5C(F)(F)F)ccc3C2=O)C(=O)N1 (stereo not drawn) [Compound 135, N-(2-(2,6-dioxopiperidin-3-yl)-1-oxoisoindolin-5-yl)-4-(trifluoromethyl)indoline-1-carboxamide]	< 0.1 µM	100 to 1000 nM	–	–	–	–	–	< 0.1 µM	< 0.1 µM	< 0.1 µM	0.1 to 1 µM	0.1 to 1 µM
O=C1CCC(N2Cc3cc(NC(=O)N4CCc5ccc(F)cc54)ccc3C2=O)C(=O)N1 (stereo not drawn) [Compound 186, N-(2-(2,6-dioxopiperidin-3-yl)-1-oxoisoindolin-5-yl)-6-fluoroindoline-1-carboxamide]	< 0.1 µM	100 to 1000 nM	–	–	–	–	–	< 0.1 µM	< 0.1 µM	< 0.1 µM	< 0.1 µM	< 0.1 µM
CC1Cc2ccccc2CN1C(=O)Nc1ccc2c(c1)CN(C1CCC(=O)NC1=O)C2=O (stereo not drawn) [Compound 205, N-(2-(2,6-dioxopiperidin-3-yl)-1-oxoisoindolin-5-yl)-3-methyl-3,4-dihydroisoquinoline-2(1H)-carboxamide]	< 0.1 µM	100 to 1000 nM	–	–	–	–	–	< 0.1 µM	< 0.1 µM	< 0.1 µM	0.1 to 1 µM	0.1 to 1 µM
O=C1CCC(N2Cc3cc(NC(=O)N4c5ccccc5CC4C(F)(F)F)ccc3C2=O)C(=O)N1 (stereo not drawn) [Compound 292, N-(2-(2,6-dioxopiperidin-3-yl)-1-oxoisoindolin-5-yl)-2-(trifluoromethyl)indoline-1-carboxamide]	< 0.1 µM	100 to 1000 nM	–	–	–	–	–	–	–	–	–	–

The next lines start with results.

DC50 (CK1α)	IC50 (CRBN/DDB1)	GI50 (SKCO1 cell line; [1])	Structure (SMILES)	GI50 (CW2 cell line; [2])	GI50 (GP2D cell line; [3])	GI50 (LS180 cell line; [4])	GI50 (LS174T cell line; [5])	GI50 (SKCO1 cell line; [6])	GI50 (CW2 cell line; CW-2, read-out: CW2 GI50 (μM))	GI50 (GP2D cell line; GP2d, read-out: GP2D GI50 (μM))	GI50 (LS180 cell line; [7])	GI50 (LS174T cell line; read-out: LS174T GI50 (μM))
< 0.1 µM	100 to 1000 nM	< 0.1 µM	Cc1cccc2c1CCN2C(=O)Nc1ccc2c(c1)CN(C1CCC(=O)NC1=O)C2=O (stereo not drawn) [Compound 198, N-(2-(2,6-dioxopiperidin-3-yl)-1-oxoisoindolin-5-yl)-4-methylindoline-1-carboxamide]	< 0.1 µM	< 0.1 µM	0.1 to 1 µM	0.1 to 1 µM	–	–	–	–	–
< 0.1 µM	100 to 1000 nM	< 0.1 µM	Cc1ccc2c(c1)CCN2C(=O)Nc1ccc2c(c1)CN(C1CCC(=O)NC1=O)C2=O (stereo not drawn) [Compound 214, N-(2-(2,6-dioxopiperidin-3-yl)-1-oxoisoindolin-5-yl)-5-methylindoline-1-carboxamide]	< 0.1 µM	< 0.1 µM	0.1 to 1 µM	0.1 to 1 µM	–	–	–	–	–
< 0.1 µM	100 to 1000 nM	< 0.1 µM	O=C1CCC(N2Cc3cc(NC(=O)N4CCc5cc(C6CC6)ccc54)ccc3C2=O)C(=O)N1 (stereo not drawn) [Compound 348, 5-cyclopropyl-N-(2-(2,6-dioxopiperidin-3-yl)-1-oxoisoindolin-5-yl)indoline-1-carboxamide]	< 0.1 µM	< 0.1 µM	< 0.1 µM	< 0.1 µM	–	–	–	–	–
< 0.1 µM	100 to 1000 nM	< 0.1 µM	C[C@H]1CN(C(=O)Nc2ccc3c(c2)CN(C2CCC(=O)NC2=O)C3=O)c2ccccc21 (stereo partly drawn) [Compound 284]	< 0.1 µM	0.1 to 1 µM	0.1 to 1 µM	< 0.1 µM	–	–	–	–	–
< 0.1 µM	100 to 1000 nM	< 0.1 µM	CC1CN(C(=O)Nc2ccc3c(c2)CN(C2CCC(=O)NC2=O)C3=O)c2ccccc21 (stereo in doubt) [Compound 283, (3R)—N-(2-(2,6-dioxopiperidin-3-yl)-1-oxoisoindolin-5-yl)-3-methylindoline-1-carboxamide]	0.1 to 1 µM	< 0.1 µM	0.1 to 1 µM	0.1 to 1 µM	–	–	–	–	–
< 0.1 µM	100 to 1000 nM	< 0.1 µM	O=C1CCC(N2Cc3cc(NC(=O)N4C[C@H](C5CC5)C[C@@H]4C4CC4)ccc3C2=O)C(=O)N1 (stereo partly drawn) [Compound 256]	< 0.1 µM	0.1 to 1 µM	0.1 to 1 µM	< 0.1 µM	–	–	–	–	–
< 0.1 µM	100 to 1000 nM	–	CC1c2ccccc2N(C(=O)Nc2ccc3c(c2)CN(C2CCC(=O)NC2=O)C3=O)C1C (stereo not drawn) [Compound 123, N-(2-(2,6-dioxopiperidin-3-yl)-1-oxoisoindolin-5-yl)-2,3-dimethylindoline-1-carboxamide]	–	–	–	–	–	–	–	–	–
0.1 to 1 µM	100 to 1000 nM	–	O=C1CCC(N2Cc3cc(NC(=O)N4CC(c5ccccc5)C4)ccc3C2=O)C(=O)N1 (stereo not drawn) [Compound 111, N-(2-(2,6-dioxopiperidin-3-yl)-1-oxoisoindolin-5-yl)-3-phenylazetidine-1-carboxamide]	–	–	–	–	–	–	–	–	–
